Test results as given in patent publication US4255431A, “Gastric acid secretion inhibiting substituted 2-(2-benzimidazolyl)-pyridines, pharmaceutical preparations containing same, and method for inhibiting gastric acid secretion” (priority 1978, dated 1981).

Test system: gastric acid secretion
Experiment: Inhibition of pentagastrin-stimulated gastric acid secretion in conscious gastric fistula dogs (intraduodenal administration)
Format: in vivo
Conditions: Canis lupus familiaris, dose 0.5 μmol/kg, read-out: Effect, % inhibition (peak inhibitory effect on gastric acid secretion)
Method: To determine the gastric acid secretion inhibitory properties, experiments have been performed on conscious dogs provided with gastric fistulas of conventional type and duodenal fistulas, the latter ones used for direct intraduodenal administration of the test compounds. After 18 hours starvation and deprivation of water the dogs were given a subcutaneous infusion of pentagastrin (1-4 nmol/kg, h) lasting for 6-7 hours. Gastric juice was collected in consecutive 30 minutes samples. An aliquot of each sample was titrated with 0.1 N NaOH to pH 7.0 for titrable acid concentration using an automatic titrator and pH-meter (Radiometer, Copenhagen, Denmark). Acid output was calculated as mmol H^+ /60 minutes. The percent inhibition compared to control experiments was calculated for each compound and the peak inhibitory effect is given in Table 2 below. […] In the test prior known compounds were compared with the compounds of the present invention as will be evident from the Table 2 below. The following gastric acid inhibiting effect data were obtained for a number of compounds tested according to the method described.

Structure (SMILES) | inhibition in vivo at 0.5 µmol/kg [%]
COc1c(C)cnc(C[S+]([O-])c2nc3cc(Cl)ccc3[nH]2)c1C (stereo not shown) [Example 26] | 25
COc1ccc2[nH]c([S+]([O-])Cc3ncc(C)c(OC)c3C)nc2c1 (stereo not shown) [Example 23] | 65
COc1c(C)cnc(C[S+]([O-])c2nc3cc(C(C)=O)c(C)cc3[nH]2)c1C (stereo not shown) [Example 11] | 70
COc1c(C)cnc(C[S+]([O-])c2nc3cc(C(C)=O)ccc3[nH]2)c1C (stereo not shown) [Example 21] | 60
COCCOc1ccnc(C[S+]([O-])c2nc3cc(C)ccc3[nH]2)c1 (stereo not shown) [Example 27] | 30
COC(=O)c1cc2nc([S+]([O-])Cc3nccc(OC)c3C)[nH]c2cc1C (stereo not shown) [Example 16] | 65
COc1c(C)cnc(C[S+]([O-])c2nc3cc(C)ccc3[nH]2)c1C (stereo not shown) [Example 24] | 50
COc1c(C)cnc(C[S+]([O-])c2nc3ccccc3[nH]2)c1C (stereo not shown) [Example 25] | 60
COC(=O)c1cc2nc([S+]([O-])Cc3ncc(C)c(OC)c3C)[nH]c2cc1C (stereo not shown) [Example 17] | 90
COC(=O)c1ccc2[nH]c([S+]([O-])C(C)c3ncc(C)cc3C)nc2c1 (stereo not shown) [Example 29] | 40
CCOC(=O)c1ccc2[nH]c([S+]([O-])Cc3ncc(C)c(OC)c3C)nc2c1 (stereo not shown) [Example 28] | 50
COC(=O)c1ccc2[nH]c([S+]([O-])Cc3ncc(C)c(OC)c3C)nc2c1 (stereo not shown) [Example 20] | 65

Same assay, conditions: Canis lupus familiaris, dose 1 μmol/kg, read-out: Effect, % inhibition (peak inhibitory effect on gastric acid secretion)

Structure (SMILES) | inhibition in vivo at 1 µmol/kg [%]
CC(=O)c1cc2nc([S+]([O-])Cc3nccc(C)c3C)[nH]c2cc1C (stereo not shown) [Example 4] | 60

Same assay, conditions: Canis lupus familiaris, dose 2 μmol/kg, read-out: Effect, % inhibition (peak inhibitory effect on gastric acid secretion)

Structure (SMILES) | inhibition in vivo at 2 µmol/kg [%]
COc1ccnc(C[S+]([O-])c2nc3c(C)cc(C)cc3[nH]2)c1 (stereo not shown) [Example 10] | 40
COC(=O)c1cc2nc([S+]([O-])Cc3cc(OC)ccn3)[nH]c2cc1C (stereo not shown) [Example 14] | 100
COc1ccnc(C[S+]([O-])c2nc3cc(C(C)=O)c(C)cc3[nH]2)c1 (stereo not shown) [Example 9] | 95
COC(=O)c1cc2nc([S+]([O-])Cc3ncc(C)cc3C)[nH]c2cc1C (stereo not shown) [Example 12] | 70
CC(=O)c1cc2nc([S+]([O-])Cc3cc(C)c(C)cn3)[nH]c2cc1C (stereo not shown) [Example 1, 2-[2-(4,5-di-methyl)pyridylmethylsulfinyl]-(5-acetyl-6-methyl)benzimidazole] | 90
COC(=O)c1cc2nc([S+]([O-])Cc3cc(C)c(C)cn3)[nH]c2cc1C (stereo not shown) [Example 2] | 60
COC(=O)c1cc2nc([S+]([O-])Cc3nccc(C)c3C)[nH]c2cc1C (stereo not shown) [Example 5] | 90
COC(=O)c1ccc2[nH]c([S+]([O-])Cc3ncc(C)cc3C)nc2c1 (stereo not shown) [Example 19] | 60
CC(=O)c1cc2nc([S+]([O-])Cc3ncc(C)cc3C)[nH]c2cc1C (stereo not shown) [Example 7, 2-[2-(3,5-dimethyl)pyridylmethylsulfinyl]-(5-acetyl-6-methyl)benzimidazole] | 100

Same assay, conditions: Canis lupus familiaris, dose 4 μmol/kg, read-out: Effect, % inhibition (peak inhibitory effect on gastric acid secretion)

Structure (SMILES) | inhibition in vivo at 4 µmol/kg [%]
COC(=O)c1cc2nc([S+]([O-])Cc3ncc(C)c(C)c3C)[nH]c2cc1C (stereo not shown) [Example 13] | 80
Cc1ccc(C[S+]([O-])c2nc3cc(C)ccc3[nH]2)nc1 (stereo not shown) [* 5-CH3, H, H, H, H, CH3, reference compound] | 50
CCOc1ccnc(C[S+]([O-])c2nc3cc(C(=O)OC)c(C)cc3[nH]2)c1 (stereo not shown) [Example 15] | 75
COC(=O)c1cc2nc([S+]([O-])Cc3ncccc3Br)[nH]c2cc1C (stereo not shown) [* 5-COOCH3,6-CH3, H, Br, H, H, reference compound] | 0
COC(=O)c1ccc2[nH]c([S+]([O-])Cc3cc(C)c(C)cn3)nc2c1 (stereo not shown) [Example 3] | 100
Cc1cnc(C[S+]([O-])c2nc3c(C)cc(C)cc3[nH]2)c(C)c1 (stereo not shown) [Example 6] | 40
CC(=O)c1cc2nc([S+]([O-])Cc3ncc(C)c(C)c3C)[nH]c2cc1C (stereo not shown) [Example 8] | 100
COC(=O)c1cc2nc([S+]([O-])Cc3ccc(C)cn3)[nH]c2cc1C (stereo not shown) [* 5-COOCH3,6-CH3, H, H, H, CH3, reference compound] | 50

Same assay, conditions: Canis lupus familiaris, dose 8 μmol/kg, read-out: Effect, % inhibition (peak inhibitory effect on gastric acid secretion)

Structure (SMILES) | inhibition in vivo at 8 µmol/kg [%]
CC(=O)c1cc2nc([S+]([O-])Cc3ccc(C)cn3)[nH]c2cc1C (stereo not shown) [* 5-COCH3,6-CH3, H, H, H, CH3, reference compound] | 80

Same assay, conditions: Canis lupus familiaris, dose 12 μmol/kg, read-out: Effect, % inhibition (peak inhibitory effect on gastric acid secretion)

Structure (SMILES) | inhibition in vivo at 12 µmol/kg [%]
Cc1ccc(C[S+]([O-])c2nc3c(C)cc(C)cc3[nH]2)nc1 (stereo not shown) [* 4-CH3,6-CH3, H, H, H, CH3, reference compound] | 50

Same assay, conditions: Canis lupus familiaris, dose 20 μmol/kg, read-out: Effect, % inhibition (peak inhibitory effect on gastric acid secretion)

Structure (SMILES) | inhibition in vivo at 20 µmol/kg [%]
CC(=O)c1cc2nc([S+]([O-])Cc3cc(C)ccn3)[nH]c2cc1C (stereo not shown) [* 5-COCH3,6-CH3, H, H, CH3, H, reference compound] | 30
COC(=O)c1ccc2[nH]c([S+]([O-])Cc3ccccn3)nc2c1 (stereo not shown) [* 5-COOCH3, H, H, H, H, H, reference compound] | 50
COc1ccc2[nH]c([S+]([O-])Cc3cc(C)ccn3)nc2c1 (stereo not shown) [* 5-OCH3, H, H, H, CH3, H, reference compound] | 10
CCc1ccc(C[S+]([O-])c2nc3cc(C(C)=O)ccc3[nH]2)nc1 (stereo not shown) [* 5-COCH3, H, H, H, H, C2 H5, reference compound] | 40
COC(=O)c1ccc2[nH]c([S+]([O-])Cc3ccc(C)cn3)nc2c1 (stereo not shown) [* 5-COOCH3, H, H, H, H, CH3, reference compound] | 90
